Publication PMC9820430, “New Affordable Methods for Large-Scale Isolation of Major Olive Secoiridoids and Systematic Comparative Study of Their Antiproliferative/Cytotoxic Effect on Multiple Cancer Cell Lines of Different Cancer Origins” (International Journal of Molecular Sciences, 2022)
Read-outs that look alike come from different tables or passages of the source.

How the values were obtained:
[1] = tested on: H1299; assay: Annexin V-FITC/PI staining, flow cytometry; format: cell-based, human; details: 48 h at EC50
Description: (§1) To discern whether cell death triggered by OOPs treatment occurred via apoptosis or necrosis under the experimental conditions applied in this study, live cells treated with OOPs were stained simultaneously with FITC-conjugated annexin V and propidium iodide (PI). Annexin V binds to phosphatidylserine (PS) translocating from the inner to the outer leaflet of the plasma membrane in apoptotic cells. Therefore, annexin V-FITC binding to PS labels live apoptotic cells with green FL. […] PS exposure to the extracellular space and cell membrane permeability were analyzed by flow cytometry as described in detail in the Experimental Section. […] OOP concentrations used were equal to the EC50 values for each cell line (Table 1). annexin V and PI staining discriminated between early- (i.e., annexin V +ve and PI −ve) and late-apoptotic cells (i.e., annexin V +ve and PI +ve), as well as between necrotic (i.e., annexin V −ve and PI +ve) and live (i.e., annexin V −ve and PI −ve) cells (Table 4).
(§2) Apoptosis and necrosis were assessed by double staining with annexin V-FITC and propidium iodide (PI) and were analyzed using flow cytometry (FACS). Human cancer cells were plated in 96-well culture plates in 100 μL of complete medium and were allowed to adhere overnight (~16 h). […] In detail, 0.5 μL of a 500× stock of each tested compound in DMSO was added directly into each well in a final volume of 250 μL culture medium and was gently mixed by pipetting. Control wells were prepared under the same experimental conditions by adding only DMSO at a final concentration of 0.2% (v/v). At the end of the treatment, the cells were detached by trypsinization, media with serum was added to deactivate trypsin, and the cells from three wells were pooled together by centrifugation (1000 rpm, 5 min, 24 °C), washed with cold PBS, centrifuged (1000 rpm, 5 min, 24 °C) and finally resuspended in cold 1× annexin V binding buffer (10 mM HEPES pH = 7.4, 150 mM NaCl, 2.5 mM CaCl2) at a density of 10^4 cells/mL. Staining was performed by incubating with annexin V- FITC and propidium iodide (PI; BioLegend) for 15 min at room temperature in the dark, according to the manufacturer’s instructions. Negative control samples consisted of cells treated only with 0.2% (v/v) DMSO for the same incubation time length (i.e., 48 h). Cells treated with Triton X-100 (0.25% (v/v)) for 5 min at 4 °C were used as controls for 100% permeabilization of the plasma membrane and maximum fluorescence staining with PI (positive control for cells in necrosis). The presence of live, apoptotic or necrotic cells was assessed with the FACS Calibur (Becton–Dickinson, San Jose, CA, USA). In total, 10,000 cells were analyzed per measurement and the acquired data were analyzed using the FlowJo V.10.0.8 software (Tree Star Inc., Ashland, OR, USA). Each condition was analyzed in duplicate, and the results presented are from 2 or 3 independent experiments.
(§3) Data showing OOPs’ apoptotic/necrotic effect were derived from two or three independent experiments and were presented as the means ± SE of the percentage (%) of both annexin V-positive cells (early apoptotic events) and % of annexin V/PI positive cells (late apoptotic events) over the whole cell population normalized to the corresponding events of the control cells, as determined using the FlowJo software.

[2] = tested on: AGS; assay: Annexin V-FITC/PI staining, flow cytometry; format: cell-based, human; details: 48 h at EC50
Description: as §1, §2, §3

[3] = tested on: PANC-1; assay: Annexin V-FITC/PI staining, flow cytometry; format: cell-based, human; details: 48 h at EC50
Description: as §1, §2, §3

[4] = tested on: SK-BR-3; assay: Annexin V-FITC/PI staining, flow cytometry; format: cell-based, human; details: 48 h at EC50
Description: as §1, §2, §3

[5] = tested on: MDA-MB 231; details: cited from earlier work
[6] = tested on: MDA-MB 231; assay: ATP-based luminescence cell viability assay (ViaLight), 72 h; set-up: species or system human; details: for Selectivity index SI (MCF 10A): EC50 MCF 10A / EC50 MDA-MB 231; for EC50: MDA-MB 231, 72 h treatment, read-out: EC50 Values of Olive Oil Polyphenols
Experimental: (§4) The antiproliferative/cytotoxic effects of the selected OOPs on each cell line were assessed by measuring the cellular ATP levels after 72 h treatments using an ATP-based luminescence assay. This assay, initially developed as a tumor chemosensitivity assay, has shown considerable promise as a general in vitro toxicity assay due to its high sensitivity that allows the detection of a small number of cells. Consequently, it can be applied to both cancer cell lines and primary tissue cells. […] The EC50 values were calculated by nonlinear regression (curve fit) using a sigmoidal dose–response equation (Figure 2A and Figure S2).
(§5) The OOPs tested in this study were first dissolved in an appropriate DMSO volume such as to prepare a final stock solution of 50 mM, which was further used to prepare various compound concentrations in DMSO-based solutions. The final DMSO concentration in the cell culture was maintained constant in all treated groups of any given experiment and never exceeded the value of 0.2% (v/v). For the treatment experiments, cells were plated in 96-well culture plates, in 100 μL of complete medium at a seeding density of 5000–10,000 cells/well—depending on cells’ size and doubling time—and were allowed to adhere overnight (~16 h). The next day, 150 μL of complete medium was added to each well and the cells were treated with various concentrations of OOPs. Each concentration was tested in triplicate and was repeated 2–3 times. To prepare the final concentration solutions, 0.5 μL of a 500× stock of each tested compound in DMSO was added directly into each well in a final volume of 250 μL culture medium and was gently mixed by pipetting. Control wells were prepared under the same experimental conditions by adding only DMSO at a final concentration of 0.2% (v/v). Compounds were not renewed during the entire period of cell exposure. All cells were cultured at 37 °C in a 5% (v/v) CO2 for 24, 48 or 72 h.
(§6) Briefly, after the treatment with OOPs, the adapted medium was removed from the dish wells and the cells were washed twice with medium without FBS. Then, the C-lysis (LT27-076) was diluted in PBS (1:2) and a volume of 50 μL was added to each well. Cells were incubated with C-lysis for at least 10 min. Finally, an equal volume of lysed cells from each well and ATP monitoring reagent (AMR; LT27-212) was transferred to the wells of a white-walled illuminometer plate (Greiner bio-one; 655074). Cell viability was quantified by measuring luminescence using a multi-mode microplate reader Safire^2 Tecan (software Magellan V6.00 STD.2PC WIN.20000/XP).

[7] = tested on: MCF-7; assay: as above; set-up: species or system human; details: 72 h treatment, read-out: EC50 Values of Olive Oil Polyphenols
Experimental: as §4, §5, §6

[8] = tested on: MKN-45; assay: as above; set-up: species or system human; details: 72 h treatment, read-out: EC50 Values of Olive Oil Polyphenols
Experimental: as §4, §5, §6

[9] = tested on: PANC-1; assay: as above; set-up: species or system human; details: 72 h treatment, read-out: EC50 Values of Olive Oil Polyphenols
Experimental: as §4, §5, §6

| Molecule | % Cell Viability [1] [%] | Early Apoptotic (% ± S.D.) [1] [%] | Late Apoptotic (% ± S.D.) [1] [%] | % Cell Viability [2] [%] | Early Apoptotic (% ± S.D.) [2] [%] | Late Apoptotic (% ± S.D.) [2] [%] | Total Apoptotic (%) [2] [%] | % Cell Viability [3] [%] | Early Apoptotic (% ± S.D.) [3] [%] | Late Apoptotic (% ± S.D.) [3] | Total Apoptotic (%) [3] [%] | % Cell Viability [4] [%] | Early Apoptotic (% ± S.D.) [4] [%] | Late Apoptotic (% ± S.D.) [4] | Total Apoptotic (%) [4] [%] | Selectivity index SI (MCF 10A) [6] | EC50 ([6]; Homo sapiens, MDA-MB-231, 72 h) [µM] | EC50 ([7]; Homo sapiens, MCF7, 72 h) [µM] | EC50 ([8]; Homo sapiens, MKN-45, 72 h) [µM] | EC50 ([9]; Homo sapiens, PANC-1, 72 h) [µM] | other results |
| --- | --- | --- | --- | --- | --- | --- | --- | --- | --- | --- | --- | --- | --- | --- | --- | --- | --- | --- | --- | --- | --- |
| COC(=O)C1=COC(C)[C@@H](C=O)[C@@H]1CC(=O)OCCc1ccc(O)c(O)c1 (mixture of isomers) [3a,b, oleuropein aglycone] | 40 | 9.14 ± 3.1 | 5.44 ± 2.2 | 31 | 19.40 ± 0.6 | 8.08 ± 2.0 | 27.48 ± 1.4 | 40 | 8.52 ± 2.3 | 3.01 ± 2.0% | 11.52 ± 4.3 | 59 | 7.63 ± 1.9 | No L.A. | 7.63 ± 1.9 | 0.4 | 24.5 | 32.2 ± 1.1 | 16.4 ± 1.6 | 19.1 ± 0.6 | Total Apoptotic (%) [1]: 14.58 ± 5.3%; EC50 ([5]; ref Mazzei et al. (2020) 27): 53 µM; EC50 [6]: 25.4 ± 0.8 µM |
| C/C=C(/C=O)[C@@H](CC=O)CC(=O)OCCc1ccc(O)cc1 [compound 1, oleocanthal] | 57 | 4.77 ± 0.9 | 7.27 ± 0.2 | 33 | 18.42 ± 4.4 | 4.94 ± 3.1 | 23.36 ± 1.4 | 60 | 4.47 ± 0.8 | No L.A. | 4.47 ± 0.8 | 59 | 7.45 ± 4.4 | 1.26 ± 0.7% | 8.71 ± 5.1 | – | 10.4 ± 0.8 | > 25 | 10.2 ± 0.4 | 14.9 ± 0.9 | EC50 ([5]; 48 or 72 h, different culture conditions): 10 to 18.5 µM; EC50 [7]: 24.6 ± 2.6 µM |
| C/C=C(/C=O)[C@@H](CC=O)CC(=O)OCCc1ccc(O)c(O)c1 [compound 2, oleacein] | 40 | 5.96 ± 1.6 | 3.07 ± 1.8 | 41 | 10.00 ± 1.3 | 4.55 ± 1.8 | 14.55 ± 3.1 | 58 | 4.39 ± 1.8 | No L.A. | 4.39 ± 1.8 | 60 | 5.78 ± 0.9 | No L.A. | 5.78 ± 0.9 | 0.7 | 37.7 ± 2.2 | > 100 | 25 ± 2.1 | 30.9 ± 0.2 | Total Apoptotic (%) [1]: 9.03 ± 0.2% |
| ligstroside aglycone [4a,b] | – | – | – | 36 | 16.03 ± 0.8 | 7.77 ± 1.8 | 23.79 ± 2.6 | 34 | 12.37 ± 2.7 | 4.42 ± 0.4% | 16.78 ± 3.1 | 87 | 1.30 ± 0.3 | No L.A. | 1.30 ± 0.3 | 1.9 | – | – | – | – | EC50 ([5]; 48 h treatment, ref Busnena et al. (2013) 23): ~80 µM; EC50 [6]: 31.6 ± 2.7 µM; EC50 [7]: 61.8 ± 1.2 µM; EC50 [8]: 24 ± 1.2 µM; EC50 [9]: 45.7 ± 1.4 µM |
